From patent US12371454B2, “Cyclic peptide compound having Kras inhibitory action” (priority 2019, dated 2025)
Starred links: 1 amine or outer side, 2 acyl side, 3 side chain; linkers in the order of their positions; H or OH if unused. Positions of bridges follow the written chain, without caps; N, C: chain ends. Non-standard residues stand in square brackets, D forms with d. Residues, ends and D or L forms follow the SMILES beside them. *: point of attachment. hPhe(3,5-F2-4-CF3) = N[C@@H](CCc1cc(F)c(C(F)(F)F)c(F)c1)C(=O)O; hPhe(3-Cl-4-CF3) = N[C@@H](CCc1ccc(C(F)(F)F)c(Cl)c1)C(=O)O; NMePhe(4-CF3) = CN[C@@H](Cc1ccc(C(F)(F)F)cc1)C(=O)O; Thiomorpholino(1,1-dioxo) = O=S1(=O)CCN(*)CC1; NMeAbu(4,4,4-F3) = CN[C@@H](CC(F)(F)F)C(=O)O; NMePhe(4-Cl) = CN[C@@H](Cc1ccc(Cl)cc1)C(=O)O; NMePhe(4-Me) = CN[C@@H](Cc1ccc(C)cc1)C(=O)O; X56 = O=C([C@H](Cc1cc(F)ccc1F)N[*:1])[*:2]; X8 = O=C([C@H](Cc1cc(I)ccc1F)N[*:1])[*:2]; NMeGly(cPent) = CN[C@H](C(=O)O)C1CCCC1; Phe(3-I) = N[C@@H](Cc1cccc(I)c1)C(=O)O; Pro(4,4-F2) = O=C(O)[C@@H]1CC(F)(F)CN1; NMeGly(cBu) = CN[C@H](C(=O)O)C1CCC1; NMeY = CN[C@@H](Cc1ccc(O)cc1)C(=O)O; NMeCha = CN[C@@H](CC1CCCCC1)C(=O)O; NMehLeu = CN[C@@H](CCC(C)C)C(=O)O; Hyp = O=C(O)[C@@H]1C[C@@H](O)CN1; NEtLeu = CCN[C@@H](CC(C)C)C(=O)O; NMeChg = CN[C@H](C(=O)O)C1CCCCC1; NMeI = CC[C@H](C)[C@H](NC)C(=O)O; NMeD = CN[C@@H](CC(=O)O)C(=O)O; NMeL = CN[C@@H](CC(C)C)C(=O)O; NMeNva = CCC[C@H](NC)C(=O)O; NMeAbu = CC[C@H](NC)C(=O)O; Morpholide = C1CN(*)CCO1; NMeA = CN[C@@H](C)C(=O)O; NMeAib = CNC(C)(C)C(=O)O; Nle = CCCC[C@H](N)C(=O)O; Piperidide = C1CCN(*)CC1; Pra = C#CC[C@H](N)C(=O)O; Pyrrolidide = C1CCN(*)C1; Ac5c = NC1(C(=O)O)CCCC1; Aze = O=C(O)[C@@H]1CCN1; CF3 = FC(F)(F)*; Sar = CNCC(=O)O

Molecular target: T1, Kras and SOS1 (biotin-tagged human Kras loaded with GDP, His-tagged human SOS1) (Homo sapiens, UniProt P01116, G12D)
T1 construct: made in house; host or cells: E. coli (stated for Kras only)
T1 sequence (P01116 1-188 isoform P01116-2 G12D): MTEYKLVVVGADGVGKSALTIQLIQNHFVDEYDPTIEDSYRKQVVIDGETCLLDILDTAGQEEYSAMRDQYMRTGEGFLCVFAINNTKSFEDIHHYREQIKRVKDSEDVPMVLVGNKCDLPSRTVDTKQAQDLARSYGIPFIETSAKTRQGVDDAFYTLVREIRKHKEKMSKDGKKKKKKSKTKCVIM
Assay: Protein-protein interaction inhibition between Kras and SOS1 (KrasGl2D-SOS PPI) using AlphaScreen
Format: binding
Conditions: AlphaScreen; biotin-tagged human Kras loaded with GDP, His-tagged human SOS1; read-out: KRAS G12D-SOS PPI IC50
How it was run: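 Read-out is acceptor-bead light at 520-620 nm, arising when 680 nm-irradiated nickel donor beads pass singlet oxygen to streptavidin acceptors. The bead pair links His-tagged SOS1 with biotin-tagged, GDP-bound Kras from E. coli.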

SMILES | IC50 [nM]
C#CC[C@@H]1NC(=O)[C@H](Cc2cccc(I)c2)NC(=O)CN(C)C(=O)[C@H](Cc2ccc(C(F)(F)F)cc2)N(C)C(=O)[C@@H]2CCN2C(=O)[C@H](C)N(C)C(=O)[C@H]([C@@H](C)CC)NC(=O)[C@H](CC(C)C)N(C)C(=O)C[C@@H](C(=O)N2CCCCC2)N(C)C(=O)[C@H](CC(C)C)NC(=O)C(C)(C)N(C)C1=O [Compound 1258] ([NMeL]I[NMeA][Aze][NMePhe(4-CF3)][Sar][Phe(3-I)][Pra][NMeAib]L[NMeD]-Piperidide; lactam N-11) | 26
CC[C@H](C)[C@@H]1NC(=O)[C@H](CC(F)(F)F)N(C)C(=O)C[C@@H](C(=O)N2CCOCC2)N(C)C(=O)[C@H](C2CCCCC2)N(C)C(=O)C2(CCCC2)NC(=O)[C@@H]2CC(F)(F)CN2C(=O)[C@H](CCc2cc(F)c(C(F)(F)F)c(F)c2)NC(=O)CN(C)C(=O)[C@H](Cc2ccc(C(F)(F)F)cc2)N(C)C(=O)CN(C)C(=O)CN(C)C1=O [Compound 1260] ([NMeAbu(4,4,4-F3)]I[Sar][Sar][NMePhe(4-CF3)][Sar][hPhe(3,5-F2-4-CF3)][Pro(4,4-F2)][Ac5c][NMeChg][NMeD]-Morpholide; lactam N-11) | 0.54
CCO[C@@H]1C[C@H]2C(=O)NC3(CCCC3)C(=O)N(C)[C@@H]([C@@H](C)CC)C(=O)N(C)[C@H](C(=O)N3CCOCC3)CC(=O)N(C)[C@@H](CC(C)C)C(=O)N[C@@H]([C@@H](C)CC)C(=O)N(C)[C@@H](C)C(=O)N3CC[C@H]3C(=O)N(C)[C@@H](Cc3ccc(C(F)(F)F)cc3)C(=O)N(C)CC(=O)N[C@@H](CCc3cc(F)c(C(F)(F)F)c(F)c3)C(=O)N2C1 [Compound 1261] ([NMeL]I[NMeA][Aze][NMePhe(4-CF3)][Sar][hPhe(3,5-F2-4-CF3)][Hyp](Et)[Ac5c][NMeI][NMeD]-Morpholide; lactam N-11) | 0.65
CC[C@H](C)[C@@H]1NC(=O)[C@H](CC(C)C)N(C)C(=O)C[C@@H](C(=O)N2CCS(=O)(=O)CC2)N(C)C(=O)[C@H](C2CCCCC2)N(C)C(=O)C2(CCCC2)NC(=O)[C@@H]2CCCN2C(=O)[C@H](CCc2ccc(C(F)(F)F)c(Cl)c2)NC(=O)CN(C)C(=O)[C@H](CC2CCCCC2)N(C)C(=O)CN(C)C(=O)CN(C)C1=O [Compound 1263] ([NMeL]I[Sar][Sar][NMeCha][Sar][hPhe(3-Cl-4-CF3)]P[Ac5c][NMeChg][NMeD]-{Thiomorpholino(1,1-dioxo)}; lactam N-11) | 2.7
CCCC[C@@H]1NC(=O)[C@H](Cc2cc(F)ccc2F)NC(=O)CN(C)C(=O)[C@H](Cc2ccc(OC)cc2)N(C)C(=O)[C@@H]2CCN2C(=O)[C@H](C)N(C)C(=O)[C@H]([C@@H](C)CC)NC(=O)[C@H](CC)N(C)C(=O)C[C@@H](C(=O)N2CCCCC2)N(C)C(=O)[C@H](CC(C)C)NC(=O)C(C)(C)N(C)C1=O [Compound 1268] ([NMeAbu]I[NMeA][Aze][NMeY](Me)[Sar][X56][Nle][NMeAib]L[NMeD]-Piperidide; lactam N-11) | 19
CC[C@H](C)[C@@H]1NC(=O)[C@H](CC(C)C)N(C)C(=O)C[C@@H](C(=O)N2CCCC2)N(C)C(=O)[C@H](C2CCCC2)N(C)C(=O)C2(CCCC2)NC(=O)[C@@H]2CC(F)(F)CN2C(=O)[C@H](CCc2ccc(C(F)(F)F)c(Cl)c2)NC(=O)CN(C)C(=O)[C@H](CC2CCCCC2)N(C)C(=O)CN(C)C(=O)CN(C)C1=O [Compound 1270] ([NMeL]I[Sar][Sar][NMeCha][Sar][hPhe(3-Cl-4-CF3)][Pro(4,4-F2)][Ac5c][NMeGly(cPent)][NMeD]-Pyrrolidide; lactam N-11) | 0.61
CC[C@H](C)[C@@H]1NC(=O)[C@H](CC(C)C)N(C)C(=O)C[C@@H](C(=O)N2CCCCC2)NC(=O)[C@H](C2CCCCC2)N(C)C(=O)C2(CCCC2)NC(=O)[C@@H]2CCCN2C(=O)[C@H](CCc2ccc(C(F)(F)F)c(Cl)c2)NC(=O)CN(C)C(=O)[C@H](CC2CCCCC2)N(C)C(=O)CN(C)C(=O)CN(C)C1=O [Compound 1274] ([NMeL]I[Sar][Sar][NMeCha][Sar][hPhe(3-Cl-4-CF3)]P[Ac5c][NMeChg]D-Piperidide; lactam N-11) | 3.8
CC[C@H](C)[C@@H]1NC(=O)[C@H](CC(C)C)N(C)C(=O)C[C@@H](C(=O)N2CCOCC2)NC(=O)[C@H]([C@@H](C)CC)N(C)C(=O)C2(CCCC2)NC(=O)[C@@H]2CCCN2C(=O)[C@H](CCc2ccc(C(F)(F)F)c(Cl)c2)NC(=O)CN(C)C(=O)[C@H](CC2CCCCC2)N(C)C(=O)CN(C)C(=O)CN(C)C1=O [Compound 1277] ([NMeL]I[Sar][Sar][NMeCha][Sar][hPhe(3-Cl-4-CF3)]P[Ac5c][NMeI]D-Morpholide; lactam N-11) | 6.7
CC[C@H](C)[C@@H]1NC(=O)[C@H](CC(C)C)N(C)C(=O)C[C@@H](C(=O)N2CCS(=O)(=O)CC2)NC(=O)[C@H]([C@@H](C)CC)N(C)C(=O)C2(CCCC2)NC(=O)[C@@H]2CCCN2C(=O)[C@H](CCc2ccc(C(F)(F)F)c(Cl)c2)NC(=O)CN(C)C(=O)[C@H](CC2CCCCC2)N(C)C(=O)CN(C)C(=O)CN(C)C1=O [Compound 1279] ([NMeL]I[Sar][Sar][NMeCha][Sar][hPhe(3-Cl-4-CF3)]P[Ac5c][NMeI]D-{Thiomorpholino(1,1-dioxo)}; lactam N-11) | 16
CC[C@H](C)[C@@H]1NC(=O)[C@H](CC(F)(F)F)N(C)C(=O)C[C@@H](C(=O)N2CCCC2)N(C)C(=O)[C@H](C2CCCCC2)N(C)C(=O)C2(CCCC2)NC(=O)[C@@H]2CC(F)(F)CN2C(=O)[C@H](CCc2cc(F)c(C(F)(F)F)c(F)c2)NC(=O)CN(C)C(=O)[C@H](CC2CCCCC2)N(C)C(=O)CN(C)C(=O)CN(C)C1=O [Compound 1281] ([NMeAbu(4,4,4-F3)]I[Sar][Sar][NMeCha][Sar][hPhe(3,5-F2-4-CF3)][Pro(4,4-F2)][Ac5c][NMeChg][NMeD]-Pyrrolidide; lactam N-11) | 0.42
CC[C@H](C)[C@@H]1NC(=O)[C@H](CC(C)C)N(CC)C(=O)C[C@@H](C(=O)N(C)C)N(C)C(=O)[C@H](C2CCCC2)N(C)C(=O)C2(CCCC2)NC(=O)[C@@H]2CCCN2C(=O)[C@H](CCc2ccc(C(F)(F)F)c(Cl)c2)NC(=O)CN(C)C(=O)[C@H](Cc2ccc(C)cc2)N(C)C(=O)[C@@H]2CCN2C(=O)[C@H](C)NC1=O [Compound 1282] ([NEtLeu]IA[Aze][NMePhe(4-Me)][Sar][hPhe(3-Cl-4-CF3)]P[Ac5c][NMeGly(cPent)][NMeD]-NMe2; lactam N-11) | 0.81
CCCC[C@@H]1NC(=O)[C@H](Cc2cc(I)ccc2F)NC(=O)CN(C)C(=O)[C@H](Cc2ccc(Cl)cc2)N(C)C(=O)CN(C)C(=O)CN(C)C(=O)[C@H]([C@@H](C)CC)NC(=O)[C@H](CC(C)C)N(C)C(=O)C[C@@H](C(=O)N2CCCCC2)N(C)C(=O)[C@H](CC(C)C)NC(=O)C(C)(C)N(C)C1=O [Compound 1286] ([NMeL]I[Sar][Sar][NMePhe(4-Cl)][Sar][X8][Nle][NMeAib]L[NMeD]-Piperidide; lactam N-11) | 24
C#CC[C@@H]1NC(=O)[C@H](Cc2cccc(I)c2)NC(=O)CN(C)C(=O)[C@H](Cc2ccc(OC(F)(F)F)cc2)N(C)C(=O)[C@@H]2CCN2C(=O)[C@H](C)N(C)C(=O)[C@H]([C@@H](C)CC)NC(=O)[C@H](CC(C)C)N(C)C(=O)C[C@@H](C(=O)N2CCCCC2)N(C)C(=O)[C@H](CC(C)C)NC(=O)C(C)(C)N(C)C1=O [Compound 1288] ([NMeL]I[NMeA][Aze][NMeY](CF3)[Sar][Phe(3-I)][Pra][NMeAib]L[NMeD]-Piperidide; lactam N-11) | 31
CC[C@H](C)[C@@H]1NC(=O)[C@H](CCC(C)C)N(C)C(=O)C[C@@H](C(=O)N2CCCC2)N(C)C(=O)[C@H]([C@@H](C)CC)N(C)C(=O)C2(CCCC2)NC(=O)[C@@H]2CCCN2C(=O)[C@H](CCc2ccc(C(F)(F)F)c(Cl)c2)NC(=O)CN(C)C(=O)[C@H](Cc2ccc(C(F)(F)F)cc2)N(C)C(=O)[C@@H]2CCN2C(=O)[C@H](C)N(C)C1=O [Compound 1289] ([NMehLeu]I[NMeA][Aze][NMePhe(4-CF3)][Sar][hPhe(3-Cl-4-CF3)]P[Ac5c][NMeI][NMeD]-Pyrrolidide; lactam N-11) | 0.67
CC[C@H](C)[C@@H]1NC(=O)[C@H](C2CCC2)N(C)C(=O)C[C@@H](C(=O)N2CCCC2)N(C)C(=O)[C@H](C2CCCCC2)N(C)C(=O)C2(CCCC2)NC(=O)[C@@H]2CC(F)(F)CN2C(=O)[C@H](CCc2cc(F)c(C(F)(F)F)c(F)c2)NC(=O)CN(C)C(=O)[C@H](CC2CCCCC2)N(C)C(=O)CN(C)C(=O)CN(C)C1=O [Compound 1295] ([NMeGly(cBu)]I[Sar][Sar][NMeCha][Sar][hPhe(3,5-F2-4-CF3)][Pro(4,4-F2)][Ac5c][NMeChg][NMeD]-Pyrrolidide; lactam N-11) | 0.5
CCC[C@H]1C(=O)N[C@@H]([C@@H](C)CC)C(=O)N(C)CC(=O)N(C)CC(=O)N(C)[C@@H](Cc2ccc(C)cc2)C(=O)N(C)CC(=O)N[C@@H](CCc2ccc(C(F)(F)F)c(Cl)c2)C(=O)N2CC(F)(F)C[C@H]2C(=O)NC2(CCCC2)C(=O)N(C)[C@@H](C2CCCCC2)C(=O)N(C)[C@H](C(=O)N2CCCC2)CC(=O)N1C [Compound 1296] ([NMeNva]I[Sar][Sar][NMePhe(4-Me)][Sar][hPhe(3-Cl-4-CF3)][Pro(4,4-F2)][Ac5c][NMeChg][NMeD]-Pyrrolidide; lactam N-11) | 0.59
C#CC[C@@H]1NC(=O)[C@H](Cc2cccc(I)c2)NC(=O)CN(C)C(=O)[C@H](Cc2ccc(OC(F)(F)F)cc2)N(C)C(=O)[C@@H]2CCN2C(=O)CN(C)C(=O)[C@H]([C@@H](C)CC)NC(=O)[C@H](CC(C)C)N(C)C(=O)C[C@@H](C(=O)N2CCCCC2)N(C)C(=O)[C@H](CC(C)C)NC(=O)C(C)(C)N(C)C1=O [Compound 1298] ([NMeL]I[Sar][Aze][NMeY](CF3)[Sar][Phe(3-I)][Pra][NMeAib]L[NMeD]-Piperidide; lactam N-11) | 28
